Source: patent publication US9809532B2, “Uses of histone acetyltransferase activators” (THE TRUSTEES OF COLUMBIA UNIVERSITY IN THE CITY OF NEW YORK, priority 2011, dated 2017)
Where “and” joins values, the source holds several entries; their conditions need not be identical. Identical values can stand only once.

How the values were obtained:
human PCAF = human PCAF (Homo sapiens, UniProt Q92831); assay: PCAF activation, in vitro assay; assay type: biochemical
wild-type mice = assay: Contextual fear conditioning; assay type: in vivo; details: for freezing 24 h after training: vs WT vehicle mice, single tone pairing with 0.35 mA foot shock
Description: Contextual fear conditioning was performed to assess whether compound 1 is capable of enhancing memory. This type of cognitive test is much faster than other behavioral tasks that require multiple days of training and testing (J Clin Invest, 2004. 114(11): 1624-34; herein incorporated by reference in its entirety). The conditioning chamber was in a sound-attenuating box. A clear Plexiglas window allowed the experimenter to film the mouse performance with a camera placed on a tripod and connected to the Freezeframe software (MED Ass. Inc.). To provide background white noise (72 dB), a single computer fan was installed in one of the sides of the sound-attenuating chamber. […] The floor was removable, and after each experimental subject, it was cleaned with 75% ethanol and then with water. Only one animal at a time was present in the experimentation […].
[…] The mice remained in the chamber for an additional 30 sec after the end of the last pairing, after which they were returned to their home cages. Contextual fear conditioning was assayed 24 hr after training by replacing the animals in the conditioning context for a 5 min period, during which the incidence of freezing (immobile except for respiration) was recorded. […]
Freezing behavior, defined as the absence of all movement except for that necessitated by breathing, was scored using the Freezeview software.
To evaluate contextual fear learning, freezing was measured for 5 min (consecutively) in the chamber in which the mice was trained 24 hr after training. To evaluate cued fear learning, following contextual testing, the mice were placed in a novel context (triangular cage with smooth flat floor) for 2 min (pre-CS test), after which they were exposed to the CS for 3 min (CS test), and freezing was measured. Sensory perception of the shock was determined through threshold assessment. […] Initially, a […] shock was delivered for 1 sec, and the animal behavior was evaluated for flinching, jumping, and vocalization. […]

mice = assay: Sensory threshold assessment; assay type: in vivo; details: vs vehicle, 5 mg/kg (FIG. 19)
Description: To evaluate contextual fear learning, freezing was measured for 5 min (consecutively) in the chamber in which the mice was trained 24 hr after training. To evaluate cued fear learning, following contextual testing, the mice were placed in a novel context (triangular cage with smooth flat floor) for 2 min (pre-CS test), after which they were exposed to the CS for 3 min (CS test), and freezing was measured. Sensory perception of the shock was determined through threshold assessment. A sequence of single foot shocks was delivered to animals placed on the same electrified grid used for fear conditioning. Initially, a […] shock was delivered for 1 sec, and the animal behavior was evaluated for flinching, jumping, and vocalization. At 30 sec intervals the shock intensity was increased by […] and then returned to 0 mV in […] increments at 30 sec intervals. Threshold to vocalization, flinching, and then jumping was quantified for each animal by averaging the shock intensity at which each animal manifests a behavioral response to the foot shock.

HDAC7 = target: T1, HDAC7 (Homo sapiens, UniProt Q8WUI4); assay: HDAC7 activity assay (fluorescence)
T1 sequence (Q8WUI4 1-952): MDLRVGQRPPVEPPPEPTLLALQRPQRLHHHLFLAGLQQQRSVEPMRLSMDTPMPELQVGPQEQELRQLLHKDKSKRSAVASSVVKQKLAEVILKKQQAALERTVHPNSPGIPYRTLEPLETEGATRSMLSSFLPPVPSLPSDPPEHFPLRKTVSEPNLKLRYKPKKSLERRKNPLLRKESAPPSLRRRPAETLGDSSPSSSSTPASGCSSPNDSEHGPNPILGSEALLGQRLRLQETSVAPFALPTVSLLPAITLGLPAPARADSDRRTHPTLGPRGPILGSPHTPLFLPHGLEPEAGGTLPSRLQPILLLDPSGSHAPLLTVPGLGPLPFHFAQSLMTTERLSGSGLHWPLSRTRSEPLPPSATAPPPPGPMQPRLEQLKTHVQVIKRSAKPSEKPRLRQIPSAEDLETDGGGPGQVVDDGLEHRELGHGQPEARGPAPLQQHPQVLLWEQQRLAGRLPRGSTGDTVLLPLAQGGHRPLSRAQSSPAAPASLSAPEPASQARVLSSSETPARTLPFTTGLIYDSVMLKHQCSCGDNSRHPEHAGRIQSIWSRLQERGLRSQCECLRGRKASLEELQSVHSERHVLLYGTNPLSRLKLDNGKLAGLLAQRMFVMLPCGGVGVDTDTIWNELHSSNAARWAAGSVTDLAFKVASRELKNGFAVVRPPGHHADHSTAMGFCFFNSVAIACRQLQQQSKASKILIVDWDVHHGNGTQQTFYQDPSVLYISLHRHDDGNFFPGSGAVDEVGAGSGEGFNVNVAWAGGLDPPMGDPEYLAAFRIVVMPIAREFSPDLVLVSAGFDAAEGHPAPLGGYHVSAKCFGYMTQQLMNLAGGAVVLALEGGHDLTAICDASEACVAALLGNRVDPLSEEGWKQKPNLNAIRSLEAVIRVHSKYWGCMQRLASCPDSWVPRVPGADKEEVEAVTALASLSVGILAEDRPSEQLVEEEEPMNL

HDAC10 = target: T2, HDAC10 (Homo sapiens, UniProt Q969S8); assay: HDAC10 activity assay (fluorescence); details: Compound 1 Log [nM] 4.5; Repeat1/Repeat2
T2 sequence (Q969S8 1-669): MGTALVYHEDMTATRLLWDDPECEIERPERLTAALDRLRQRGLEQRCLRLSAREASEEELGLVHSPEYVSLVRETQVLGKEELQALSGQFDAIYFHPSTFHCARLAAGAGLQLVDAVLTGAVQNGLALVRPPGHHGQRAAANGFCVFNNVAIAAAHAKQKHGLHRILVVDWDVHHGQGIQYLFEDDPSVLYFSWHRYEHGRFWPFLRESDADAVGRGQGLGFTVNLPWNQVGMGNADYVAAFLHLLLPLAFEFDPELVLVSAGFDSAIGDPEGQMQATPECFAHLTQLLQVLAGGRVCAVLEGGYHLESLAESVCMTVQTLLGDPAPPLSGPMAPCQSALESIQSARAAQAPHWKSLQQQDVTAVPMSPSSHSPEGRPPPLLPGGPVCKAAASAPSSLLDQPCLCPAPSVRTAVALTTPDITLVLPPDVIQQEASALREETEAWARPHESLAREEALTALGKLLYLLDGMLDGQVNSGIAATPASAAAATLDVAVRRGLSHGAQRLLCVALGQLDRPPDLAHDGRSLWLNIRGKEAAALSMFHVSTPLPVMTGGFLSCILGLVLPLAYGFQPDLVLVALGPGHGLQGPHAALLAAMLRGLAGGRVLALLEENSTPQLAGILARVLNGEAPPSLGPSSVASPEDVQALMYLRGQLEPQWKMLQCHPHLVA

Sequence of human PCAF (Q92831 whole entry): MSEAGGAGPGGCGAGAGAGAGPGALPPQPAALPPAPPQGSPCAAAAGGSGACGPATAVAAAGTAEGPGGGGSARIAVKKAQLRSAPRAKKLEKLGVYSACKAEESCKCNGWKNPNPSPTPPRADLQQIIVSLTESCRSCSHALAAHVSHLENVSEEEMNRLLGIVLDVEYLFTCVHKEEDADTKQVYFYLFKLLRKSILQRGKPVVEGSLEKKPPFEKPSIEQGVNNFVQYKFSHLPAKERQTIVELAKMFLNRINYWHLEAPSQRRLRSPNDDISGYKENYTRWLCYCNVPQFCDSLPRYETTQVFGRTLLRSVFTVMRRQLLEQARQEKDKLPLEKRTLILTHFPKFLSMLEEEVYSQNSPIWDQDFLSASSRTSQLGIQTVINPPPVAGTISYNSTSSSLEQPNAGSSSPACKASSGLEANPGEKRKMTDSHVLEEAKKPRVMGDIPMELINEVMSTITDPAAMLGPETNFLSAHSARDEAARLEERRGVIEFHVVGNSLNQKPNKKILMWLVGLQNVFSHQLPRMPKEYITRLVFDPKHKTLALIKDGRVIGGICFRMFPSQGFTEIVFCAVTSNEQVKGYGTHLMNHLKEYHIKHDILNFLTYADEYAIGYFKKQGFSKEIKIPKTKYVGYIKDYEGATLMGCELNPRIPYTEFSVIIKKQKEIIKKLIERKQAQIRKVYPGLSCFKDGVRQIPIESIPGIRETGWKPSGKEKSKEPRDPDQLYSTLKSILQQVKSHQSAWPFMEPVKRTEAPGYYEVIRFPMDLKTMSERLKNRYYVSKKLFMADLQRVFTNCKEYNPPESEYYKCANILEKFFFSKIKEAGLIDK

Compound: CCOc1cccc(OCCN(C)C)c1C(=O)Nc1ccc(Cl)c(C(F)(F)F)c1 [Compound 1]
- EC50 (human PCAF): 29 µM and 18.1 µM
- freezing 24 h after training (wild-type mice; 5 mg/kg): froze nearly twice as often
- freezing 24 h after training (wild-type mice; 20 mg/kg): froze nearly twice as often
- memory effect (wild-type mice; weaker training protocol): worked as a memory enhancer
- sensory threshold (mice): no difference was observed
- IC50 (HDAC7): > 200 µM
- % Activity (HDAC10) (HDAC10): 102.89%
